For assay [1], the system named is Caulobacter. Kind of assay: Colony formation assay. The format is cell-based, Caulobacter crescentus. An excerpt: To assess the impact of A22 on cell division and survival, we examined the effect of A22 on colony formation.
Assay [2] concerns the target T1, MreB (Caulobacter vibrioides, UniProt A0A0H3C7V4).
T1 construct: endogenous in cells; host or cells: Caulobacter crescentus cells (formaldehyde-crosslinked extracts)
Kind of assay: Chromatin immunoprecipitation with anti-MreB. The assay is classed as cell-based, Caulobacter crescentus. Particulars: in the presence of A22. The text has this: MreB Associates with Origin-Proximal Loci. The specific inhibition of origin movement by A22 raises the possibility that the duplicated origin moves to the opposite pole through a specific physical association with MreB, much as eukaryotic centromeres are segregated by association with microtubules. We sought to detect such an association in vivo by chromatin immunoprecipitation (ChIP). Following previously established protocols, Caulobacter extracts were ChIP'ed with polyclonal antisera raised against purified Caulobacter MreB. PCR was then used to amplify specific segments of the Caulobacter chromosome. […] We detected a faint signal with primers to the dnaA promoter located 6 kb to the right of the origin (FIG. 8), possibly reflecting the fact that dnaA is at the edge of the MreB binding region.
Chromatin Immunoprecipitations. Formaldehyde-crosslinked chromatin immunoprecipitation was performed as described previously. The anti-MreB antibody was raised by cloning the mreB coding sequence into the pET28a vector (Novagen). The resulting His6-tagged MreB was overexpressed in BL21(DE3)/pLysS E. coli and purified using Qiagen Ni2+-NTA agarose as described previously. Two milligrams of purified His6-MreB was used to immunize two rabbits (Josman Laboratories, Napa, Calif.). Oligonucleotide primer sequences for the regions PCR amplified are available upon request.

Assay [3] relates to E. coli JA221, JST975. The assay is described as follows: Cell shapes of A22-resistant mutant JA221 and parent JST975. The assay is classed as cell-based. The note with it: 10 μg/ml A22. The procedure: FIG. 9. Effects of A22 and mecillinam on cell shapes of the A22-resistant mutant JA221. Exponentially growing cells of the A22-resistant mutant strain JA221 and the parent strain JST975 were treated with 1 μg/ml mecillinam or 10 μg/ml A22 for 2 h at 37° C. Differential interference contrast microphotographs are shown.
After prolonged (9 days) incubation of the JST975 assay plates, several isolated colonies that grew up within the clear growth inhibitory zones were purified on L plates and their A22-sensitivity was examined.

Assay [4] has as its system P. putida NBRC14164. The assay is described as follows: Determination of minimum inhibitory concentration (MIC). The assay is classed as cell-based, Pseudomonas putida. Particulars: Pseudomonas putida, read-out: MIC P. putida. The gist of the method: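 Two-fold serial agar dilution on L agar and also on Mueller Hinton agar (pH 7.3); 10 µl of stationary-phase culture diluted in 0.85% NaCl to 10^6 cells/ml spotted per plate. MIC taken as lowest concentration inhibiting growth.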

In assay [5] the test system is S. typhimurium. Kind of assay: Induction of spherical cells. The assay is classed as cell-based. The text has this: (§1) A22 was effective against Gram-negative rod-shaped bacteria.
Assay [6] concerns P. putida. Kind of assay: Induction of spherical cells. The assay is classed as cell-based.
Description: as §1

For assay [7], the system named is B. subtilis. The assay is described as follows: Induction of spherical cells. The format is cell-based.
Description: as §1

Assay [8] has as its system E. coli cells. The assay is described as follows: Cell lysis. The assay is classed as cell-based. The text has this:
To facilitate the isolation of A22-resistant mutants a PBP 1B-defective (ponB^−) mutant strain, JST975, which forms a clear growth inhibitory zone upon A22 treatment, was selected as the parent strain in our screen. […] This correlates well with the increased sensitivity of mreB mutant strains to β-lactam antibiotics. In future screens for antibacterial agents derived from A22, it will be important to consider that the antibacterial effect of A22 on wild-type E. coli cells may be enhanced by simultaneous treatment with sub-lethal concentrations of β-lactam antibiotics.

For assay [9], the system named is E. coli MG1655. Kind of assay: Microscopic observation of cell shape. The assay is classed as cell-based. Particulars: for Effect on E. coli cell morphology (in words): 3×MIC or 300 μg/ml, 16 hrs. The gist of the method: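 E. coli K-12 MG1655 grown in Lennox broth with 0.1% glucose (pH 7.2), exposed to compound, methanol-fixed 5 min and examined by differential interference contrast microscopy. Anucleate cells scored after DAPI staining (5 μg/ml) using combined fluorescence phase-contrast.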

Converted amounts (≈) assume the structure as drawn. Where two headings read alike, the source gives them in different places.

By MIC is commonly meant the smallest concentration in the dilution series that meets the test's criterion for growth inhibition.

T1 sequence (A0A0H3C7V4 whole entry): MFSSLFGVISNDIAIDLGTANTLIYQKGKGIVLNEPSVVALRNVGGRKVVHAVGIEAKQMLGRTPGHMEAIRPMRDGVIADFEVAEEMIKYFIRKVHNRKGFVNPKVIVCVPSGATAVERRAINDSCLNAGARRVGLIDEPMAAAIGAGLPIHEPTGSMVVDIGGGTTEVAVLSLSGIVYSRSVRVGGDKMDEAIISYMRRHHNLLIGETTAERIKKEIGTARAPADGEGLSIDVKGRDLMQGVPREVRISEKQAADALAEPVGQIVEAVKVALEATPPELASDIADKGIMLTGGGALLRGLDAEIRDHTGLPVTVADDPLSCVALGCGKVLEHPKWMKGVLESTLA

With `N=C(N)SCc1ccc(Cl)c(Cl)c1` [Compound 1, S-(3,4-dichlorobenzyl)isothiourea], the “Colony formation (CFU)” value in assay [1] (0.1 μg/ml) is given as “un-perturbed”; in assay [1] (1 μg/ml) it was “partially slowed colony formation”; in assay [1] (10 μg/ml and higher), “completely halted the increase in CFU”. In assay [2], the “Origin coimmunoprecipitation with MreB” value is “significantly reduced, though not abolished”. For the same molecule, the “Cell shape of parent strain JST975” value in assay [3] was “formed spherical cells”. In addition, the “Cell shape of resistant mutant JA221” value in assay [3] is given as “grew as rods”. In addition, the MIC is 100 µg/mL (≈ 425 µM) in [4] (NBRC14164, Example 2, methods as in Example 1) and 100 µg/mL (≈ 425 µM) in [4] (NBRC14164, Table 1, NBRC14164). Also, the “Induction of spherical cells in S. typhimurium” value in assay [5] was “induced spherical cells”. Also, in assay [6], the “Induction of spherical cells in P. putida” value is on record as “induced spherical cells”. Besides, the “Induction of spherical cells in B. subtilis” value in assay [7] is recorded as “did not”. In addition, in [8] (JST975 liquid culture), the “Lysis of E. coli cells in the absence of PBP 1B” value was “induces cell lysis”. For the same molecule, the “Lysis of wild-type E. coli cells” value in assay [8] (wild-type) is “does not lyse”. For the same molecule, the “Effect on E. coli cell morphology (in words)” value in [9] (30° C.) is “induced a spherical cell shape”; in [9] (30° C., listed as A22), “induced spherical cells”. The Shape entry in assay [9] (E. coli MG1655 treated at 3×MIC (*), 30° C., 16 h) was “Sphere*”; in [9] (Example 2, methods as in Example 1) it was “Sphere”.

These data come from patent US7855228B2, “Antibiotics targeting MreB” (The Board of Trustees of the Leland Stamford Junior …, priority 2005, dated 2010).
